IC50 and DC50 data for 26 compounds are collected here from patent EP4722206A1, “BENZO(HETERO)CYCLOALKYL COMPOUNDS FOR ANDROGEN RECEPTOR-DEPENDENT DISEASES” (Haihe Biopharma Co., Ltd., priority 2023, dated 2024).

For one assay, the target named is T1, Androgen receptor (AR) (Homo sapiens, UniProt P10275).
T1 construct: expressed in transfected cells; host or cells: AR+ARE/Luc HEK293T cells
T1 sequence (P10275 1-920): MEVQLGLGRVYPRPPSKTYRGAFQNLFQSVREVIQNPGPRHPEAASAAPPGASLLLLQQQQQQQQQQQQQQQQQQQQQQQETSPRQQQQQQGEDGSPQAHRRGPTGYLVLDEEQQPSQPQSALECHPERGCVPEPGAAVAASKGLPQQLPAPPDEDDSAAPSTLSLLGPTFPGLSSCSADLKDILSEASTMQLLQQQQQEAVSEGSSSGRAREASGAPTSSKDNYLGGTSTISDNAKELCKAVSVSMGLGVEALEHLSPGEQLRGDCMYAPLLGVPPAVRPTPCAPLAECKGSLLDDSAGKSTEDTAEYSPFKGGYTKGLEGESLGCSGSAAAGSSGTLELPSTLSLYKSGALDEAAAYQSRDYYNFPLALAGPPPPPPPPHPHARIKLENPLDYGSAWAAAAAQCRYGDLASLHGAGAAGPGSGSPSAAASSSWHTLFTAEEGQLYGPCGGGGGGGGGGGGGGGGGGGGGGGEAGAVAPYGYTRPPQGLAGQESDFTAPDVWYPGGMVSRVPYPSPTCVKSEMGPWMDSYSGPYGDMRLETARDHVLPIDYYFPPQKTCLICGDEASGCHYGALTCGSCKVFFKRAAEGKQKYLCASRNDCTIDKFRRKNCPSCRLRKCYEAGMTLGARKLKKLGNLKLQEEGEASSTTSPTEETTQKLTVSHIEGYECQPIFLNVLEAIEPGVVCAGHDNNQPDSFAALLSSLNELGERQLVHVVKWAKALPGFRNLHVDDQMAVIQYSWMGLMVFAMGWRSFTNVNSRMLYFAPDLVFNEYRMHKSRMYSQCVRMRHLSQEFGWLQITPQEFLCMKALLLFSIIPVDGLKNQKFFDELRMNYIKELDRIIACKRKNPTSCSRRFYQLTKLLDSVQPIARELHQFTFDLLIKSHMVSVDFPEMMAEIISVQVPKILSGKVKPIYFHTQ
Kind of assay: Androgen receptor (AR) reporter gene assay (ARE Luc). Particulars: AR+ARE/Luc HEK293T cells, with 11-KDHT, 24h incubation, Bright-Lite luminescence. It counts as cell-based. The protocol: Experimental Methods: 1. The described compounds were dissolved in 100% DMSO at a final concentration of 10 mM. 100 nL each of 400X compound to be tested and 400X 11-KDHT (40 nM) represtively were added to a 384-well assay plate with Echo, followed by 20 µL of complete medium, and centrifuged at 1000 rpm for 1 min, and oscillated for 20-30 min at room temperature. 2. 20 µL of AR+ARE/Luc HEK293T cells (10,000 cells/well) were inoculated into the assay plate containing the compounds and 11-KDHT, and centrifuged at 1000 rpm for 1 min. The assay plate was incubated in a 37 °C CO2 incubator for 24h. 3. 40 µL of Bright-Lite assay reagent was transferred to each well of the assay plate, centrifuged at 1000 rpm for 1 min, and shaken for 2 min at room temperature protected from light. 4. Luminescence values (RLU) were measured using Envision. […] Table 1. AR inhibition of Representative Compounds
On the technique in general: In a reporter assay the amount or activity of a reporter protein is the signal.

A further assay has as its target T2, AR-V7 (Homo sapiens, UniProt P10275).
T2 construct: fusing HiBiT tag (PromegaTM) into the C-terminus of the AR-V7 genome of 22RV1 cells; host or cells: 22RV1 cells, CRISPR/Cas9 knock-in of HiBiT at the AR-V7 C-terminus
T2 sequence (P10275 1-644 isoform P10275-3): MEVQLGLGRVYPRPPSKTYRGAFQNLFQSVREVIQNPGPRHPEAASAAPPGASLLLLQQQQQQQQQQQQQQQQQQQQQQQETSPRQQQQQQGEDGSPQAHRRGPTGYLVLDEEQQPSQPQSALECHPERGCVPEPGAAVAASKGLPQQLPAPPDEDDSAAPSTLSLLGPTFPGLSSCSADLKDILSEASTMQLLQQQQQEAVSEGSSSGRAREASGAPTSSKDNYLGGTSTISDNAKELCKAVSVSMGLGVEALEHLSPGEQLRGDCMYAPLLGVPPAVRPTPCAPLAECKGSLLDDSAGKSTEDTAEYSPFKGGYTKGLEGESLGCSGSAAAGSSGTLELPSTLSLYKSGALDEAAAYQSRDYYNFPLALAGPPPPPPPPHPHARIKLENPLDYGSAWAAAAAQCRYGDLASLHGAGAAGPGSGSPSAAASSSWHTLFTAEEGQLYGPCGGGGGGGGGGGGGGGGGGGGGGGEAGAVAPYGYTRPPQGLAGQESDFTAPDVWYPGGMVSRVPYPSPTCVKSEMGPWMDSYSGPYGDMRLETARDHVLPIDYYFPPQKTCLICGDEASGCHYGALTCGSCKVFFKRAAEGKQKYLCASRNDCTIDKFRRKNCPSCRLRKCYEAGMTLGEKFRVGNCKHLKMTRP
Kind of assay: AR degradation experiment (AR-V7-HiBiT, Nano-Glo HiBiT Lytic Detection). It counts as cell-based. Particulars: 22RV1 cells stably expressing AR-V7-HiBiT, 24 hr at 37 °C; concentration required for degradation 50% of the target protein. Here is the method: In this experiment, cells stably expressing AR-V7-HiBiT was constructed by fusing HiBiT tag (PromegaTM) into the C-terminus of the AR-V7 genome of 22RV1 cells (ATCC) using CRISPR/Cas9 technology. The concentration of test compounds started from 1000 nM, and diluted with DMSO by 3-fold gradient for 11 points. […]
For orientation: With HiBiT, luminescence reflects the tagged protein that the partner subunit can reach.

What is called IC50 is the concentration at which inhibition is half-maximal. As usually defined, the DC50 is the concentration at which degradation of the target reaches its halfway point. Low values mean a more potent degrader, high ones a less potent degrader.

Structures are written as SMILES.

`N#Cc1cc2c(c(Cl)c1OCCCl)CCCC2c1cnc(N2CCC(OC3CN(c4ccc5c(c4)C(=O)N(C4CCC(=O)NC4=O)C5=O)C3)CC2)nc1` (stereo not shown) [HANT-390] came in with an IC50 on Androgen receptor (AR) of 476 nM.

Compound `N#Cc1cc2c(c(Cl)c1OCCCl)CCCC2c1ccc(NCCOCCOc2ccc3c(c2)C(=O)N(C2CCC(=O)NC2=O)C3=O)nc1` (stereo not shown) [HANT-346] registered a concentration for half-maximal inhibition (IC50) against Androgen receptor (AR) of 29 nM. Besides, at AR-V7, the DC50 was found to be 24 nM.

Turning to `N#Cc1cc2c(c(Cl)c1OCCCl)CCC[C@H]2c1cnc(NCCOCCOc2ccc3c(c2)C(=O)N(C2CCC(=O)NC2=O)C3=O)nc1` (stereo partly shown) [HANT-315-P1], at Androgen receptor (AR), the IC50 came out at 2 nM. Besides, at AR-V7, the DC50 is 4.3 nM.

Compound `N#Cc1cc(C2CCCc3c2cc(C#N)c(OCCCl)c3Cl)cnc1N1CC(OCCOc2ccc3c(c2)C(=O)N(C2CCC(=O)NC2=O)C3=O)C1` (stereo not shown) [HANT-516] returned an IC50 against Androgen receptor (AR) of 32 nM.

`N#Cc1cc2c(c(Cl)c1OCCCl)CCCC2c1cnc2c(cnn2CCOCCOc2ccc3c(c2)C(=O)N(C2CCC(=O)NC2=O)C3=O)c1` (stereo not shown) [HANT-515]: the IC50 on Androgen receptor (AR) came to 754 nM.

For the compound `N#Cc1cc2c(c(Cl)c1OCCCl)CCCC2Nc1ccc(OCNc2ccc3c(c2)C(=O)N(C2CCC(=O)NC2=O)C3=O)nc1` (stereo not shown) [HANT-329], inhibition against Androgen receptor (AR) was half-maximal at 123 nM (IC50).

As for `N#Cc1cc2c(c(Cl)c1OCCCl)CCCC2c1cnc(N2CCC(OCCCOc3ccc4c(c3)C(=O)N(C3CCC(=O)NC3=O)C4=O)CC2)nc1` (stereo not shown) [HANT-371, 4-chloro-3-(2-chloroethoxy)-8-(2-(4-(3-((2-(2,6-dioxopiperidin-3-yl)-1,3-dioxoisoindol-5-yl)oxy)propoxy)piperidin-1-yl)pyrimidin-5-yl)-5,6,7,8-tetrahydronaphthalene-2-carbonitrile], the IC50 at Androgen receptor (AR) is 292 nM. This compound also gave a DC50 at AR-V7 of 284 nM.

Take `N#Cc1cc2c(c(Cl)c1OCCCl)CCCC2c1cnc(N2CCC(OCCNc3ccc4c(c3)C(=O)N(C3CCC(=O)NC3=O)C4=O)C2)nc1` (stereo not shown) [HANT-393]: at Androgen receptor (AR), the IC50 was determined as 428 nM.

In the case of `CCOc1c(C#N)cc2c(c1Cl)CCCC2c1cnc(NCCOCCOc2ccc3c(c2)C(=O)N(C2CCC(=O)NC2=O)C3=O)nc1` (stereo not shown) [HANT-354], it took 21 nM to reach half-maximal inhibition against Androgen receptor (AR) (IC50). The same compound displayed a DC50 on AR-V7 of 13 nM.

At Androgen receptor (AR), `N#Cc1cc2c(c(Cl)c1OCCCl)CCCC2c1cnc(NCCOCCOc2ccc3c(c2)C(=O)N(C2CCC(=O)NC2=O)C3=O)nc1` (stereo not shown) [HANT-315, 4-chloro-3-(2-chloroethoxy)-8-(2-(2-(2-(2,6-dioxopiperidin-3-yl)-1,3-dioxoisoindolin-5-yl)oxy)ethoxy-amino)pyrimidin-5-yl-5,6,7,8-tetrahydronaphthalene-2-carbonitrile] yielded an IC50 of 30 nM. On AR-V7, this compound displayed a DC50 of 8.7 nM.

In the case of `N#Cc1cc2c(c(Cl)c1OCCCl)CCCC2c1cnc(N2CCC(OCCOc3ccc4c(c3)C(=O)N(C3CCC(=O)NC3=O)C4=O)CC2)nc1` (stereo not shown) [HANT-342], on Androgen receptor (AR), the IC50 is 27 nM. The compound also returned a DC50 on AR-V7 of 40 nM.

`N#Cc1cc2c(c(Cl)c1OCCCl)CCCC2c1ccc(OCCCCOc2ccc3c(c2)C(=O)N(C2CCC(=O)NC2=O)C3=O)nc1` (stereo not shown) [HANT-338] came in with an IC50 on Androgen receptor (AR) of 657 nM. This compound also yielded a DC50 on AR-V7 greater than 10000 nM.

Consider `N#Cc1cc2c(c(Cl)c1OCCCl)CCCC2c1ccc(OCCCNc2ccc3c(c2)C(=O)N(C2CCC(=O)NC2=O)C3=O)nc1` (stereo not shown) [HANT-339], for which the IC50 against Androgen receptor (AR) is 569 nM.

On Androgen receptor (AR), `N#Cc1cc2c(c(Cl)c1OCCCl)CCCC2c1ccc(N2CC(OCCOc3ccc4c(c3)C(=O)N(C3CCC(=O)NC3=O)C4=O)C2)nc1` (stereo not shown) [HANT-513] had an IC50 of 7.6 nM.

For the compound `N#Cc1cc2c(c(Cl)c1OCCCl)CCCC2Nc1ccc(OCOCNc2ccc3c(c2)C(=O)N(C2CCC(=O)NC2=O)C3=O)nc1` (stereo not shown) [HANT-328], at Androgen receptor (AR), the IC50 stood at 1830 nM.

On Androgen receptor (AR), `N#Cc1cc2c(c(Cl)c1OCCCl)CCCC2Nc1ccc(OCOCNc2cccc3c2C(=O)N(C2CCC(=O)NC2=O)C3=O)nc1` (stereo not shown) [HANT-362] showed an IC50 of 913 nM.

Compound `N#Cc1cc2c(c(Cl)c1OCCCl)CCC[C@@H]2c1cnc(NCCOCCOc2ccc3c(c2)C(=O)N(C2CCC(=O)NC2=O)C3=O)nc1` (stereo partly shown) [HANT-315-P2] returned an IC50 against Androgen receptor (AR) of 3870 nM.

Consider `N#Cc1cc2c(c(Cl)c1OCCCl)CCCC2c1ccc(N2CCC(OCCOc3ccc4c(c3)C(=O)N(C3CCC(=O)NC3=O)C4=O)CC2)nc1` (stereo not shown) [HANT-514], for which it took 73 nM to reach half-maximal inhibition against Androgen receptor (AR) (IC50).

At Androgen receptor (AR), `N#Cc1cc2c(c(Cl)c1OCCCl)CCCC2c1ccc(N2CCC(OCCCOc3ccc4c(c3)C(=O)N(C3CCC(=O)NC3=O)C4=O)CC2)nc1` (stereo not shown) [HANT-512] came in with an IC50 of 318 nM.

Consider `CCOc1c(C#N)cc2c(c1Cl)CCCC2Nc1ccc(OCCCNc2ccc3c(c2)C(=O)N(C2CCC(=O)NC2=O)C3=O)nc1` (stereo not shown) [HANT-312, 4-chloro-8-(6-(3-((2-(2,6-dioxopiperidin-3-yl)-1,3-dioxoisoindolin-5-yl)amino)propoxy)pyridin-3-ylamino)-3-ethoxy-5,6,7,8-tetrahydronaphthalene-2-carbonitrile], for which half-maximal inhibition on Androgen receptor (AR) (IC50) required 377 nM.

In turn, `N#Cc1cc2c(c(Cl)c1OCCCl)CCCC2c1ccc(OC2CCC(Oc3ccc4c(c3)C(=O)N(C3CCC(=O)NC3=O)C4=O)CC2)nc1` (stereo not shown) [HANT-517] had an IC50 against Androgen receptor (AR) of 575 nM.

In the case of `N#Cc1cc2c(c(Cl)c1OCCCl)CCCC2c1cnc(N2CC(OCCOc3ccc4c(c3)C(=O)N(C3CCC(=O)NC3=O)C4=O)C2)nc1` (stereo not shown) [HANT-519], at Androgen receptor (AR), it took 23 nM to reach half-maximal inhibition (IC50).

`N#Cc1cc2c(c(Cl)c1OCCCl)CCCC2c1cnc(NCCCNc2ccc3c(c2)C(=O)N(C2CCC(=O)NC2=O)C3=O)nc1` (stereo not shown) [HANT-314] showed an IC50 at Androgen receptor (AR) of 490 nM.

In the case of `CCOc1c(C#N)cc2c(c1Cl)CCCC2c1cnc(NCCOC2CN(c3ccc4c(c3)C(=O)N(C3CCC(=O)NC3=O)C4=O)C2)nc1` (stereo not shown) [HANT-431, 4-chloro-8-(2-((2-(2-(1-(2-(2,6-dioxopiperidin-3-yl)-1,3-dioxoisoindol-5-yl)azetidin-3-yl)oxy)ethyl)amino)pyrimidin-5-yl)-3-ethoxy-5,6,7,8-tetrahydronaphthalene-2-carbonitrile], half-maximal inhibition against Androgen receptor (AR) (IC50) required 744 nM.

`N#Cc1cc2c(c(Cl)c1OCCCl)CCCC2c1ccc(OC2CCC(OCCOc3ccc4c(c3)C(=O)N(C3CCC(=O)NC3=O)C4=O)CC2)nc1` (stereo not shown) [HANT-518] gave an IC50 on Androgen receptor (AR) of 209 nM.

`N#Cc1cc2c(c(Cl)c1OCCCl)CCCC2Nc1ccc(OCCCCNc2ccc3c(c2)C(=O)N(C2CCC(=O)NC2=O)C3=O)nc1` (stereo not shown) [HANT-331, 4-chloro-3-(2-chloroethoxy)-8-((6-(4-(2-(2,6-dioxopiperidin-3-yl)-1,3-dioxoisoindolin-5-yl)amino)butoxy)pyridin-3-amino)-5,6,7,8-tetrahydronaphthalene-2-carbonitrile] yielded an IC50 against Androgen receptor (AR) of 822 nM. Besides, the DC50 on AR-V7 is greater than 10000 nM.
